Measurements: article PMC7114351 (Antiviral Research, 2008)
Where “and” joins values, the source holds several entries; their conditions need not be identical. Equal values may be shown once. Entries after “also recorded” stand apart in the source; their conditions may differ. Read-outs that look alike come from different tables or passages of the source.

What was measured:
[1] = tested on: recombinant VACV expressing luciferase; assay: microbe, parasite or virus in culture; assay type: cell-based, vaccinia virus; details: for IC50: Orthopoxvirus vaccinia, read-out: Luc IC50 ± SD
VACV (strain WR) = details: HFF cells, ref Quenelle et al., 2007; cited from earlier work
VACVs (strain WR) = details: two different VACVs (strain WR), ref Becker et al., 2008, cited from earlier work
[2] = tested on: VACV late promoter p4b (Luc L); assay type: cell-based, vaccinia virus
VACV proteins = assay type: cell-based, vaccinia virus
[3] = tested on: cell lines of the antiviral assays; assay: Cytotoxicity in conditions of the antiviral assays; details: up to 1 mM; higher cell density, 2% serum, 24 h incubation
[4] = tested on: luciferase expressed by Luc E/L or Luc L; assay type: cell-based, vaccinia virus
recombinant VACV = assay: microbe, parasite or virus in culture; assay type: cell-based, vaccinia virus; details: for IC50 / IC90: Orthopoxvirus vaccinia; for IC50: read-out: Titer IC50 ± SD; for IC90: read-out: Titer IC90 ± SD
WT VACV (WR) = assay: microbe, parasite or virus in culture; assay type: cell-based; details: Orthopoxvirus vaccinia; for IC50: read-out: Titer IC50 ± SD; for IC90: read-out: Titer IC90 ± SD
L929 cells = assay: Cytotoxicity, MTT assay; assay type: cell-based, mouse
HeLa G cells = assay: Cytotoxicity, MTT assay; assay type: cell-based, human
VACV genomic DNA = assay type: cell-based, vaccinia virus
[5] = tested on: VACV early/late promoter p7.5 (Luc E/L); assay type: cell-based, vaccinia virus
WT VACV = assay type: cell-based, vaccinia virus
VACV = assay type: cell-based, vaccinia virus
Cytotoxicity, MTT assay [6] = assay type: cell-based; details: human, Jurkat cells
BSC-40 cells = assay: Cytotoxicity, MTT assay; assay type: cell-based, African green monkey
Cytotoxicity, MTT assay [7] = assay type: cell-based, mouse; details: mouse, L929 cells
Cytotoxicity, MTT assay [8] = assay type: cell-based, human; details: human, HeLa G cells
Cytotoxicity, MTT assay [9] = assay type: cell-based, African green monkey; details: African green monkey, BSC-40 cells

Structure (SMILES): O[C@@H](CS)[C@@H](O)CS (racemic) [dithiothreitol]
- luciferase activity, % of the mock-treated controls [1]: 140%

Structure (SMILES): Nc1ccn(C[C@@H](CO)OCP(=O)(O)O)c(=O)n1 [cidofovir]
- IC50 (VACV (strain WR)): 33 µM
- IC50 (VACVs (strain WR); BSC-40 cells): < 50 µM
- IC50 (VACVs (strain WR); Vero cells): 54 µM and 62 µM

Structure (SMILES): Nc1ccn([C@@H]2O[C@H](CO)[C@@H](O)[C@@H]2O)c(=O)n1 [AraC, cytosine arabinoside]
- activity of luciferase expressed by Luc L, % of the mock-treated controls grown in the absence of AraC [2]: ≤ 0.05%

Structure (SMILES): O=C(O)CCCCC1CCSS1 (stereo not drawn) [Lipoic acid, α-lipoic acid]
- VACV protein levels, western blot (VACV proteins): did not induce any major changes; also recorded: decreased the protein expression slightly
- cytotoxicity in conditions of the antiviral assays [3]: neither EA nor LA induced any obvious cytotoxicity
- protein levels of luciferase, western blot [4]: gradual decrease
- IC50 (recombinant VACV; BSC-40, 24 h): 409 ± 8 µM
- IC50 (recombinant VACV; HeLa, 24 h): 220 ± 14 µM
- IC50 (recombinant VACV; Jurkat, 24 h): 354 ± 52 µM
- IC50 (recombinant VACV; L929, 24 h): 245 ± 18 µM
- IC50 (WT VACV (WR); 24 h): 587 ± 296 µM
- IC50 (WT VACV (WR); BSC-40, 24 h): 712 ± 444 µM
- IC50 (WT VACV (WR); HeLa, 24 h): 803 ± 273 µM
- IC50 (WT VACV (WR); Jurkat, 24 h): 492 ± 92 µM
- IC50 (WT VACV (WR); L929, 24 h): 702 ± 16 µM
- CC50 (L929 cells; MTT, 2 days of incubation): Growth promotion
- inhibition of cell growth, MTT (L929 cells; up to 2 mM): not found to inhibit growth
- CC50 (HeLa G cells; MTT, 2 days of incubation): Growth promotion
- inhibition of cell growth, MTT (HeLa G cells; up to 2 mM): not found to inhibit growth
- levels of VACV genomic DNA (VACV genomic DNA): not changed
- effect on activity of Luc E/L [5]: dose-dependent inhibitory effect
- effect on activity of luciferase expressed by Luc E/L (early gene expression) [5]: neither EA nor LA further decreased this measurable activity of luciferase
- IC50 ([1]; 24 h): 305 ± 12 µM
- IC50 ([1]; BSC-40, 24 h): 642 ± 4 µM
- IC50 ([1]; HeLa, 24 h): 838 ± 159 µM
- IC50 ([1]; L929, 24 h): 747 ± 199 µM
- size of plaques (WT VACV): reduced the size of plaques
- effect on activity of Luc L [2]: dose-dependent inhibitory effect
- effect on activity of luciferase expressed by Luc L [2]: neither EA nor LA affected this result
- effect of pre-treatment on luciferase activity and virus titers (VACV entry) (VACV): not found to cause any differences
- CC50 at 2 days (Cytotoxicity, MTT assay [6]): > 2000 µM
- CC50 (BSC-40 cells; MTT, 2 days of incubation): Growth promotion
- inhibition of cell growth, MTT (BSC-40 cells; up to 2 mM): not found to inhibit growth

Structure (SMILES): O=C(NN1C(=O)[C@@H]2[C@@H]3C=C[C@@H]([C@H]4C[C@@H]34)[C@@H]2C1=O)c1ccc(C(F)(F)F)cc1 [ST-246]
- IC50 (VACV (strain WR)): 0.1 µM

Structure (SMILES): O=C1O[C@H]([C@@H](O)CO)C(O)=C1O [L-ascorbic acid, L-Ascorbic acid]
- luciferase activity, % of the mock-treated controls [1]: 120%

Structure (SMILES): C=C(CC)C(=O)c1ccc(OCC(=O)O)c(Cl)c1Cl [Ethacrynic acid, ethacrynic acid]
- VACV protein levels, western blot (VACV proteins): did not seem to decrease protein levels
- inhibition of VACV growth (recombinant VACV): 1 logs and 2 logs
- IC50 (recombinant VACV; 24 h): 12.2 ± 0.3 µM
- IC90 (recombinant VACV; 24 h): 40.9 ± 1.4 µM
- IC50 (recombinant VACV; BSC-40, 24 h): 11.9 ± 0.5 µM
- IC90 (recombinant VACV; BSC-40, 24 h): 30.9 ± 0.8 µM
- IC50 (recombinant VACV; HeLa, 24 h): 1.6 ± 0.1 µM
- IC90 (recombinant VACV; HeLa, 24 h): 5.4 ± 0.3 µM
- IC50 (recombinant VACV; Jurkat, 24 h): 9.5 ± 2.4 µM
- IC90 (recombinant VACV; Jurkat, 24 h): 30.9 ± 10 µM
- IC50 (recombinant VACV; L929, 24 h): 19.8 ± 2.4 µM
- IC90 (recombinant VACV; L929, 24 h): 80.2 ± 30.9 µM
- IC50 (WT VACV (WR); 24 h): 9.5 ± 2.6 µM
- IC90 (WT VACV (WR); 24 h): 47.8 ± 7.9 µM
- IC50 (WT VACV (WR); BSC-40, 24 h): 9.2 ± 1 µM
- IC90 (WT VACV (WR); BSC-40, 24 h): 29.4 ± 1 µM
- IC90 (WT VACV (WR); HeLa, 24 h): 18.8 ± 0.6 µM
- IC50 (WT VACV (WR); Jurkat, 24 h): 13.8 ± 4.7 µM
- IC90 (WT VACV (WR); Jurkat, 24 h): 42.9 ± 13.4 µM
- IC50 (WT VACV (WR); L929, 24 h): 19.3 ± 3.9 µM
- IC90 (WT VACV (WR); L929, 24 h): 61.3 ± 16.3 µM
- CC50 at 2 days (Cytotoxicity, MTT assay [7]): 224 µM
- CC50 at 2 days (Cytotoxicity, MTT assay [8]): 128 µM
- levels of VACV genomic DNA (VACV genomic DNA): not changed
- IC50 ([1]; 24 h): 18.3 ± 3.7 µM
- IC50 ([1]; BSC-40, 24 h): 35.3 ± 7 µM
- IC50 ([1]; HeLa, 24 h): 2.6 ± 0.6 µM
- IC50 ([1]; L929, 24 h): 26.5 ± 1.9 µM
- number of plaques (WT VACV): reduced the number of plaques
- CC50 at 2 days (Cytotoxicity, MTT assay [6]): 35 µM
- CC50 at 2 days (Cytotoxicity, MTT assay [9]): 292 µM

Structure (SMILES): OCCS [β-mercapthoethanol, β-mercaptoethanol]
- luciferase activity, % of the mock-treated controls [1]: 150%

Structure (SMILES): CCCCCCCCCCCCCCCCOCCCOP(=O)(O)CO[C@H](CO)Cn1ccc(N)nc1=O [CMX001]
- IC50 (VACV (strain WR)): 0.13 µM
